From publication PMC6178183, “Development of a HPLC-MS/MS Method to Determine 11 Bioactive Compounds in Tongmai Yangxin Pill and Application to a Pharmacokinetic Study in Rats” (Evidence-based Complementary and Alternative Medicine : eCAM, 2018)
Several values for one entry are separate records, joined by “and”; a condition that tells them apart may be missing. Equal values may be shown once.

How the values were obtained:
[1] = tested on: human umbilical vein endothelial cells; design: method as in doi:10.1039/C6RA19212B; settings: human umbilical vein endothelial cells in zebrafish; cited from earlier work
[2] = design: method as in PMID 26771134; settings: rat plasma, oral Radix glycyrrhizae or combination of Radix glycyrrhizae and Ramulus cinnamomi; cited from earlier work
[3] = Pharmacokinetic study in rats after oral administration of TMYX extract (HPLC-MS/MS of plasma); type: in vivo, Sprague–Dawley rats; settings: rat plasma; for AUC(0-inf) / half-life / AUC / k el: male, Sprague-Dawley; for AUC(0-inf) / half-life / AUC / k el / C max1 / T max1 / C max2 / T max2: oral TMYX extract 8.3 g/kg single dose; for AUC(0-inf) / half-life / AUC / k el / C max1 / C max2 / T max2: n=6; for AUC: read-out: AUC (0-tn); for k el: read-out: K e (converted); for peaks in the mean plasma concentration-time profile: oral TMYX extract 8.3 g/kg; for T max1: n=6, mean ± SD; for C max2 / T max2: second peak
Protocol: The HPLC-MS/MS system consists of an Agilent 1200 high-performance liquid chromatography coupled with an Aglient 6430 series triple quadrupole mass spectrometer with an electrospray ionization (ESI) source. The chromatographic separation was achieved on a CORTECS C18 column (4.6 mm × 150 mm, 2.7 μm), and the column temperature was kept at 30°C. Mobile phases which consisted of 0.1% formic acid in water (A) and acetonitrile (B) were used in the following gradient elution method: 0-10 min, 10%-85% B; 10-13 min, 85%-95% B; 13-19 min, 95%-95% B. The flow rate was set at 0.3 mL/min, and the injection volume was 10 μL. All data were analyzed by Mass Hunter workstation software (Agilent Technologies, USA).
The mass spectrometer was carried out in both positive and negative ionization multiple-reaction monitoring (MRM) mode. The source parameters were as follows: the capillary voltage set at 300 V for positive ionization mode and -300 V for negative ionization mode, the drying gas temperature was 320°C, the flow was 11 L/min, and nebulizing gas pressure was 30 psi.
The plasma (100 μL) was spiked with 20 μL of methanol, 20 μL of the IS (icariin, 1 μg/mL), and 20 μL of formic acid and then vortex-mixed. The mixture was extracted with 800 μL of ethyl acetate by vortex mixing for 5 min at room temperature. After centrifugation at 14,000 rpm for 10 min, the supernatant was collected to a clean tube and evaporated to dryness under a nitrogen stream. The residue was reconstituted in 50 μL of 50% methanol, vortexed for 5 min, and centrifuged at 14,000 rpm for 10 min. Finally, 10 μL supernatant was injected into the LC-MS/MS system for analysis.
Male Sprague–Dawley rats (230-250 g) were obtained from Beijing HFK Experimental Animal Technology Co., Ltd. The rats were maintained under the control environmental conditions and they fasted for 12 h with free access to water before the experiments. TMYX extracts were dissolved in CMC-Na and administrated orally to rats at 8.3 g/kg. The blood samples (200 μL) were collected from the rat fossa orbitalis vein at 0, 0.03, 0.083, 0.17, 0.25, 0.5, 1, 2, 4, 6, 8, 10, 12, 24, 36, and 48 h after oral administration to heparinized tubes. And then the blood samples were centrifuged at 7,000 rpm for 10 min to get the plasma sample immediately. Finally, the plasma obtained was stored at −70°C until analysis. Pharmacokinetic parameters were calculated by the computer program “Drug and Statistics 2.0” (DAS 2.0) (Medical College of Wannan, China).

[4] = Stability of analytes in rat plasma QC samples under storage conditions; type: in vitro ADME; settings: n=6, gallic acid, ononin, schisandrin, stilbene glycoside, liquiritigenin, rhein, verbascoside; for Measured Concentration, auto-sampler for 12 h: prepared rat plasma samples; for Measured Concentration, -70°C for 14 days / Measured Concentration, room temperature for 6 h / Measured Concentration, three freeze-thaw cycles: rat plasma
Protocol: Quality control (QC) samples at three concentrations (low, medium, and high concentration) were made up of appropriate mixed standard solutions with blank blood sample as calibration solutions to meet the required concentrations. All the solutions were kept at 4°C.
The stability of analytes in plasma samples was determined by analyzing QC samples of three concentration levels at different conditions: stored at autosampler for 12 h, at room temperature for 6 h, under three freeze-thaw cycles and stored at -70°C for 14 days. All stability studies were measured in six replicates.

[5] = design: method as in PMID 25943824; settings: active ingredients of TMYX with high R values; cited from earlier work
[6] = design: method as in PMID 23608243; settings: rat dosed processed Radix polygoni multiflori; cited from earlier work
[7] = high QC: spiked 2000 ng/mL glycyrrhizic acid, 1000 liquiritin, 200 emodin, 100 isoliquiritigenin
[8] = low QC: spiked 20 ng/mL glycyrrhizic acid, 10 liquiritin, 2 emodin, 1 isoliquiritigenin
[9] = medium QC: spiked 200 ng/mL glycyrrhizic acid, 100 liquiritin, 20 emodin, 10 isoliquiritigenin

Row | AUC(0-inf) [3] [ng·h/mL] | half-life [3] [h] | AUC [3] [ng·h/mL] | k el [3] [s⁻¹] | C max1 [3] [ng/mL] | T max1 [3] | Measured Concentration, auto-sampler for 12 h [4, 7] [ng/mL] | Measured Concentration, auto-sampler for 12 h [4, 8] [ng/mL] | Measured Concentration, auto-sampler for 12 h [4, 9] [ng/mL] | Measured Concentration, -70°C for 14 days [4, 7] [ng/mL] | Measured Concentration, room temperature for 6 h [4, 7] [ng/mL] | Measured Concentration, three freeze-thaw cycles [4, 7] [ng/mL] | Measured Concentration, -70°C for 14 days [4, 8] [ng/mL] | Measured Concentration, room temperature for 6 h [4, 8] [ng/mL] | Measured Concentration, three freeze-thaw cycles [4, 8] [ng/mL] | Measured Concentration, -70°C for 14 days [4, 9] [ng/mL] | Measured Concentration, room temperature for 6 h [4, 9] [ng/mL] | Measured Concentration, three freeze-thaw cycles [4, 9] [ng/mL] | SMILES | proliferation and angiogenesis [1] | antiinflammatory effects [5] | also measured
1 |  |  |  |  |  |  |  |  |  |  |  |  |  |  |  |  |  |  | CC(C)=CCc1c(O)ccc(-c2coc3cc(O)cc(O)c3c2=O)c1O [licoisoflavone A] | promote proliferation and angiogenesis |  | 
2 |  |  |  |  |  |  |  |  |  |  |  |  |  |  |  |  |  |  | CC(C)=CCc1cc(-c2oc3cc(O)c(CC=C(C)C)c(O)c3c(=O)c2O)ccc1O [glyasperin A] | promote proliferation and angiogenesis |  | 
3 | 333 ± 142 | 12.7 ± 7.04 | 315 ± 130 | 0.000139 | 37.8 ± 24.1 | 0.20 h and 0.20 ± 0.07 h | 92.65 ± 0.68 | 0.87 ± 0.01 | 8.63 ± 0.23 | 91.88 ± 0.86 | 112.69 ± 1.30 | 92.59 ± 0.63 | 0.88 ± 0.02 | 0.87 ± 0.01 | 0.89 ± 0.02 | 9.26 ± 0.08 | 10.82 ± 0.58 | 8.99 ± 0.07 | O=C1C[C@@H](c2ccc(O)cc2)Oc2cc(O)ccc21 [liquiritigenin] |  |  | peaks in plasma concentration-time profile [2]: One peak; peaks in the mean plasma concentration-time profile [3]: double peaks; C max2 [3]: 21.0 ± 15.3 ng/mL; T max2 [3]: 7.20 h and 7.20 ± 3.35 h
4 |  |  |  |  |  |  |  |  |  |  |  |  |  |  |  |  |  |  | COc1cc2c(c(OC)c1CC=C(C)C)C(=O)[C@H](c1ccc(O)c(CC=C(C)C)c1O)CO2 [licorisoflavan A] | promote proliferation and angiogenesis |  | 
5 |  |  |  |  |  |  |  |  |  |  |  |  |  |  |  |  |  |  | COc1c(CC=C(C)C)c(O)cc2oc(=O)c(-c3ccc(O)cc3O)cc12 [glycycoumarin] | promote proliferation and angiogenesis |  | 
6 | 69.4 ± 28.5 | 2.85 ± 1.4 | 58.2 ± 20.2 | 0.000103 | 14.4 ± 6.8 | 0.46 ± 0.10 h | 195.34 ± 4.30 | 1.83 ± 0.01 | 18.84 ± 0.62 | 200.23 ± 3.89 | 216.32 ± 0.91 | 191.28 ± 2.36 | 1.95 ± 0.01 | 2.02 ± 0.03 | 1.85 ± 0.01 | 18.51 ± 0.15 | 20.57 ± 0.26 | 18.71 ± 0.26 | COc1ccc(-c2coc3cc(O[C@@H]4O[C@H](CO)[C@@H](O)[C@H](O)[C@H]4O)ccc3c2=O)cc1 [ononin] |  | exert antiinflammatory effects in a dose-dependent manner | 
7 | 298 ± 185 | 1.99 ± 1.31 | 284 ± 189 | 0.000125 | 99.1 ± 27.1 | 0.50 ± 0.31 h | 182.40 ± 1.23 | 1.89 ± 0.00 | 19.00 ± 0.64 | 203.34 ± 1.39 | 202.79 ± 12.80 | 200.45 ± 2.10 | 1.99 ± 0.01 | 1.82 ± 0.01 | 2.00 ± 0.03 | 20.01 ± 0.31 | 20.88 ± 1.19 | 19.87 ± 1.43 | OC[C@H]1O[C@@H](Oc2c(O)cc(O)cc2/C=C/c2ccc(O)cc2)[C@H](O)[C@@H](O)[C@@H]1O [stilbene glycoside] |  | exert antiinflammatory effects in a dose-dependent manner | 
8 | 17300 ± 11000 | 18.2 ± 9.61 | 12700 ± 5060 | 1.39e-05 | 351.7 ± 347.4 | 2.13 h and 2.13 ± 1.44 h | 1884.66 ± 9.26 | 19.25 ± 0.34 | 200.96 ± 3.93 | 1834.54 ± 29.34 | 2099.10 ± 8.92 | 1869.00 ± 42.55 | 18.77 ± 0.09 | 20.49 ± 0.79 | 19.30 ± 0.20 | 200.33 ± 2.98 | 203.22 ± 3.32 | 188.63 ± 3.57 | CC1(C)[C@@H](O[C@H]2O[C@H](C(=O)O)[C@@H](O)[C@H](O)[C@H]2O[C@@H]2O[C@H](C(=O)O)[C@@H](O)[C@H](O)[C@H]2O)CC[C@]2(C)[C@H]3C(=O)C=C4[C@@H]5C[C@@](C)(C(=O)O)CC[C@]5(C)CC[C@@]4(C)[C@]3(C)CC[C@@H]12 [glycyrrhizic acid] |  | exert antiinflammatory effects in a dose-dependent manner | peaks in plasma concentration-time profile [2]: One peak; detection in vivo at 48 h ([3]; 48 h after oral TMYX extract 8.3 g/kg): can still be detected in vivo at 48 h; peaks in the mean plasma concentration-time profile [3]: double peaks; C max2 [3]: 476.1 ± 146.0 ng/mL; T max2 [3]: 17.67 h and 17.67 ± 10.31 h

Row | SMILES | AUC(0-inf) [3] [ng·h/mL] | half-life [3] [h] | AUC [3] [ng·h/mL] | k el [3] [s⁻¹] | C max1 [3] [ng/mL] | T max1 [3] | Measured Concentration, auto-sampler for 12 h [4, 7] [ng/mL] | Measured Concentration, auto-sampler for 12 h [4, 8] [ng/mL] | Measured Concentration, auto-sampler for 12 h [4, 9] [ng/mL] | Measured Concentration, -70°C for 14 days [4, 7] [ng/mL] | Measured Concentration, room temperature for 6 h [4, 7] [ng/mL] | Measured Concentration, three freeze-thaw cycles [4, 7] [ng/mL] | Measured Concentration, -70°C for 14 days [4, 8] [ng/mL] | Measured Concentration, room temperature for 6 h [4, 8] [ng/mL] | Measured Concentration, three freeze-thaw cycles [4, 8] [ng/mL] | Measured Concentration, -70°C for 14 days [4, 9] [ng/mL] | Measured Concentration, room temperature for 6 h [4, 9] [ng/mL] | Measured Concentration, three freeze-thaw cycles [4, 9] [ng/mL] | proliferation and angiogenesis [1] | antiinflammatory effects [5] | also measured
9 | Cc1cc(O)c2c(c1)C(=O)c1cc(O)cc(O)c1C2=O [emodin] | 561 ± 192 | 4.21 ± 2.63 | 476 ± 121 | 0.000108 | 88.0 ± 37.5 | 0.32 ± 0.14 h | 200.50 ± 11.66 | 1.93 ± 0.02 | 19.88 ± 1.81 | 185.45 ± 0.98 | 207.49 ± 1.27 | 197.74 ± 5.65 | 1.86 ± 0.03 | 1.95 ± 0.05 | 2.00 ± 0.02 | 18.79 ± 0.18 | 21.14 ± 0.99 | 19.21 ± 0.33 |  |  | peaks in plasma profile [6]: one peak
